# Reference: patent US11000033B2, “Ketone or oxime compound, and herbicide” (NISSAN CHEMICAL CORPORATION, priority 2014, dated 2021)
# Key:
# Type in all cases: in vivo
# corn = test: Test Example 4: effect on crop by soil treatment (symbol c); conditions: application herbicide amount 320 g/ha
# In short: (§1)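 Grown at 25° C. to 30° C. in a greenhouse, the crops came from seed sown spot-wise in sterilized diluvial soil under roughly 1.5 cm of covering soil.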
# Scirpus juncoides = test: Test Example 1: herbicidal activity, application before weed generation in submerged conditions (symbol B); conditions: application herbicide amount 320 g/ha
# In short: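 Weeds are sown into submerged alluvial soil alongside transplanted 2.5-leaf rice, and the compound, as an emulsion diluted to a set rate, is applied onto the water before emergence. Rating on the 0–5 herbicidal-ratio scale follows 3 weeks of greenhouse growth at 25–30 °C.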
# Lolium multiflorum Lam. = test: Test Example 4: herbicidal effect by soil treatment (symbol K); conditions: application herbicide amount 320 g/ha
# In short: (§2)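 Seeds were sown in sterilized diluvial soil, covered with about 1.5 cm of soil, and the soil surface was sprayed with a water-diluted emulsion of the compound at a predetermined rate. Plants grew in a greenhouse at 25° C. to 30° C.; effects were scored visually 3 weeks after application.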
# Setaria viridis [1] = test: Test Example 5: herbicidal effect by foliage application, plastic box (symbol G); conditions: 320 g/ha, 3 weeks after application
# In short: (§3)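 Effect is rated 3 weeks after a foliar spray of water-diluted emulsion concentrate at a predetermined herbicide amount. Plants had grown 14 days in a 25° C. to 30° C. greenhouse from seed in sterilized diluvial soil.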
# Stellaria media = test: Test Example 4: herbicidal effect by soil treatment (symbol P); conditions: application herbicide amount 320 g/ha
# In short: as §2
# [2] = test system: Echinochloa crus-galli var. crus-galli; test: Test Example 5: herbicidal effect by foliage application, plastic box (symbol H); conditions: 320 g/ha, 3 weeks after application
# In short: as §3
# soybean [3] = test: Test Example 5: effect on crop by foliage application, plastic box (symbol d); conditions: 320 g/ha, 3 weeks after application
# In short: (§4)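 Crop seed is sown alongside grass and broadleaf weed species in spots in sterilized diluvial soil, then covered to a depth of about 1.5 cm. Plants grow in a greenhouse kept at 25° C. to 30° C.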
# Avena fatua = test: Test Example 4: herbicidal effect by soil treatment (symbol I); conditions: application herbicide amount 320 g/ha
# In short: as §2
# Abutilon theophrasti = test: Test Example 4: herbicidal effect by soil treatment (symbol M); conditions: application herbicide amount 320 g/ha
# In short: as §2
# Setaria viridis [4] = test: Test Example 4: herbicidal effect by soil treatment (symbol G); conditions: application herbicide amount 320 g/ha
# In short: as §2
# Galium spurium [5] = test: Test Example 4: herbicidal effect by soil treatment (symbol Q); conditions: application herbicide amount 320 g/ha
# In short: as §2
# rice plant = test: Test Example 5: effect on crop by foliage application, plastic box (symbol b); conditions: 320 g/ha, 3 weeks after application
# In short: as §4
# Digitaria ciliaris = test: Test Example 5: herbicidal effect by foliage application, plastic box (symbol F); conditions: 320 g/ha, 3 weeks after application
# In short: as §3
# soybean [6] = test: Test Example 4: effect on crop by soil treatment (symbol d); conditions: application herbicide amount 320 g/ha
# In short: as §1
# Amaranthus retroflexus [7] = test: Test Example 4: herbicidal effect by soil treatment (symbol N); conditions: application herbicide amount 320 g/ha
# In short: as §2
# wheat [8] = test: Test Example 5: effect on crop by foliage application, plastic box (symbol e); conditions: 320 g/ha, 3 weeks after application
# In short: as §4
# Alopecurus myosuroides [9] = test: Test Example 4: herbicidal effect by soil treatment (symbol J); conditions: application herbicide amount 320 g/ha
# In short: as §2
# Amaranthus retroflexus [10] = test: Test Example 5: herbicidal effect by foliage application, plastic box (symbol N); conditions: 320 g/ha, 3 weeks after application
# In short: as §3
# wheat [11] = test: Test Example 4: effect on crop by soil treatment (symbol e); conditions: application herbicide amount 320 g/ha
# In short: as §1
# Galium spurium [12] = test: Test Example 5: herbicidal effect by foliage application, plastic box (symbol Q); conditions: 320 g/ha, 3 weeks after application
# In short: as §3
# Alopecurus myosuroides [13] = test: Test Example 5: herbicidal effect by foliage application, plastic box (symbol J); conditions: 320 g/ha, 3 weeks after application
# In short: as §3
# rice = test: Test Example 4: effect on crop by soil treatment (symbol b); conditions: application herbicide amount 320 g/ha
# In short: as §1
SMILES,"c: corn, effect on crop grade (corn)","Herbicidal effect grade, B: Scirpus juncoides (Scirpus juncoides)","K: Lolium multiflorum Lam., herbicidal effect grade (Lolium multiflorum Lam.)","G: Setaria viridis, herbicidal effect (criteria of Test Example 1) (Setaria viridis [1])","P: Stellaria media, herbicidal effect grade (Stellaria media)","H: Echinochloa crus-galli var. crus-galli, herbicidal effect (criteria of Test Example 1) [2]","d: soybean, effect on crop (criteria of Test Example 1) (soybean [3])","I: Avena fatua, herbicidal effect grade (Avena fatua)","M: Abutilon theophrasti, herbicidal effect grade (Abutilon theophrasti)","G: Setaria viridis, herbicidal effect grade (Setaria viridis [4])","Q: Galium spurium, herbicidal effect grade (Galium spurium [5])","b: directly sowed rice plant, effect on crop (criteria of Test Example 1) (rice plant)","F: Digitaria ciliaris, herbicidal effect (criteria of Test Example 1) (Digitaria ciliaris)","d: soybean, effect on crop grade (soybean [6])","N: Amaranthus retroflexus, herbicidal effect grade (Amaranthus retroflexus [7])","e: wheat, effect on crop (criteria of Test Example 1) (wheat [8])","J: Alopecurus myosuroides, herbicidal effect grade (Alopecurus myosuroides [9])","N: Amaranthus retroflexus, herbicidal effect (criteria of Test Example 1) (Amaranthus retroflexus [10])","e: wheat, effect on crop grade (wheat [11])","Q: Galium spurium, herbicidal effect (criteria of Test Example 1) (Galium spurium [12])",further results
CON=C(C)CC1CC(O)=C(c2c(C)cc(C)cc2SC)C1=O (stereo not drawn) [6-075],0 (Herbicidal ratio of 5% or lower (almost no effect)),1 (Herbicidal ratio of 5% or higher and lower than 20%),4 (Herbicidal ratio of 70% or higher and lower than 90%),0 (Herbicidal ratio of 5% or lower (almost no effect)),0 (Herbicidal ratio of 5% or lower (almost no effect)),2 (Herbicidal ratio of 20% or higher and lower than 40%),0 (Herbicidal ratio of 5% or lower (almost no effect)),0 (Herbicidal ratio of 5% or lower (almost no effect)),0 (Herbicidal ratio of 5% or lower (almost no effect)),0 (Herbicidal ratio of 5% or lower (almost no effect)),0 (Herbicidal ratio of 5% or lower (almost no effect)),4 (Herbicidal ratio of 70% or higher and lower than 90%),1 (Herbicidal ratio of 5% or higher and lower than 20%),0 (Herbicidal ratio of 5% or lower (almost no effect)),0 (Herbicidal ratio of 5% or lower (almost no effect)),2 (Herbicidal ratio of 20% or higher and lower than 40%),4 (Herbicidal ratio of 70% or higher and lower than 90%),0 (Herbicidal ratio of 5% or lower (almost no effect)),0 (Herbicidal ratio of 5% or lower (almost no effect)),0 (Herbicidal ratio of 5% or lower (almost no effect)),"J: Alopecurus myosuroides, herbicidal effect (criteria of Test Example 1) (Alopecurus myosuroides [13]): 5 (Herbicidal ratio of 90% or more (almost completely withered)); b: directly sowed rice plant, effect on crop grade (rice): 0 (Herbicidal ratio of 5% or lower (almost no effect))"
"CON=C(C)CC1CC(O)=C(c2c(C)cc(Br)cc2OC)C1=O (stereo not drawn) [6-076, 2-(4-bromo-2-methoxy-6-methylphenyl)-3-hydroxy-5-{2-(methoxyimino)propyl}cyclopent-2-enone]",5 (Herbicidal ratio of 90% or more (almost completely withered)),3 (Herbicidal ratio of 40% or higher and lower than 70%),5 (Herbicidal ratio of 90% or more (almost completely withered)),5 (Herbicidal ratio of 90% or more (almost completely withered)),0 (Herbicidal ratio of 5% or lower (almost no effect)),5 (Herbicidal ratio of 90% or more (almost completely withered)),1 (Herbicidal ratio of 5% or higher and lower than 20%),3 (Herbicidal ratio of 40% or higher and lower than 70%),5 (Herbicidal ratio of 90% or more (almost completely withered)),5 (Herbicidal ratio of 90% or more (almost completely withered)),0 (Herbicidal ratio of 5% or lower (almost no effect)),5 (Herbicidal ratio of 90% or more (almost completely withered)),5 (Herbicidal ratio of 90% or more (almost completely withered)),0 (Herbicidal ratio of 5% or lower (almost no effect)),1 (Herbicidal ratio of 5% or higher and lower than 20%),5 (Herbicidal ratio of 90% or more (almost completely withered)),0 (Herbicidal ratio of 5% or lower (almost no effect)),1 (Herbicidal ratio of 5% or higher and lower than 20%),0 (Herbicidal ratio of 5% or lower (almost no effect)),3 (Herbicidal ratio of 40% or higher and lower than 70%),"J: Alopecurus myosuroides, herbicidal effect (criteria of Test Example 1) (Alopecurus myosuroides [13]): 5 (Herbicidal ratio of 90% or more (almost completely withered)); b: directly sowed rice plant, effect on crop grade (rice): 5 (Herbicidal ratio of 90% or more (almost completely withered))"
"CON=C(C)CC1CC(O)=C(c2c(C)cc(-c3ccc(Cl)cc3)cc2OC)C1=O (stereo not drawn) [6-077, 2-(4′-chloro-3-methoxy-5-methyl-[1,1′-biphenyl]-4-yl)-3-hydroxy-5-{2-(methoxyimino)propyl}cyclopent-2-enone]",0 (Herbicidal ratio of 5% or lower (almost no effect)),3 (Herbicidal ratio of 40% or higher and lower than 70%),5 (Herbicidal ratio of 90% or more (almost completely withered)),5 (Herbicidal ratio of 90% or more (almost completely withered)),3 (Herbicidal ratio of 40% or higher and lower than 70%),5 (Herbicidal ratio of 90% or more (almost completely withered)),2 (Herbicidal ratio of 20% or higher and lower than 40%),4 (Herbicidal ratio of 70% or higher and lower than 90%),5 (Herbicidal ratio of 90% or more (almost completely withered)),5 (Herbicidal ratio of 90% or more (almost completely withered)),4 (Herbicidal ratio of 70% or higher and lower than 90%),5 (Herbicidal ratio of 90% or more (almost completely withered)),5 (Herbicidal ratio of 90% or more (almost completely withered)),0 (Herbicidal ratio of 5% or lower (almost no effect)),5 (Herbicidal ratio of 90% or more (almost completely withered)),5 (Herbicidal ratio of 90% or more (almost completely withered)),5 (Herbicidal ratio of 90% or more (almost completely withered)),1 (Herbicidal ratio of 5% or higher and lower than 20%),0 (Herbicidal ratio of 5% or lower (almost no effect)),4 (Herbicidal ratio of 70% or higher and lower than 90%),"J: Alopecurus myosuroides, herbicidal effect (criteria of Test Example 1) (Alopecurus myosuroides [13]): 5 (Herbicidal ratio of 90% or more (almost completely withered)); b: directly sowed rice plant, effect on crop grade (rice): 5 (Herbicidal ratio of 90% or more (almost completely withered))"
